From ChEMBL document CHEMBL1128481, “Synthesis, structure elucidation, and biochemical evaluation of 7 alpha- and 7 beta-arylaliphatic-substituted androst-4-ene-3,17-diones as inhibitors of aromatase” (J Med Chem, 1995) come the findings set out here.

As usually defined, the Ki is a dissociation constant, usually derived from enzyme kinetics or from competition with a known ligand. Read a low Ki as higher affinity. By inhibition is commonly meant the percentage by which the read-out fell short of the control.

Experiment [1] deals with T1, Aromatase (Homo sapiens, UniProt P11511).
T1 sequence (P11511 whole entry): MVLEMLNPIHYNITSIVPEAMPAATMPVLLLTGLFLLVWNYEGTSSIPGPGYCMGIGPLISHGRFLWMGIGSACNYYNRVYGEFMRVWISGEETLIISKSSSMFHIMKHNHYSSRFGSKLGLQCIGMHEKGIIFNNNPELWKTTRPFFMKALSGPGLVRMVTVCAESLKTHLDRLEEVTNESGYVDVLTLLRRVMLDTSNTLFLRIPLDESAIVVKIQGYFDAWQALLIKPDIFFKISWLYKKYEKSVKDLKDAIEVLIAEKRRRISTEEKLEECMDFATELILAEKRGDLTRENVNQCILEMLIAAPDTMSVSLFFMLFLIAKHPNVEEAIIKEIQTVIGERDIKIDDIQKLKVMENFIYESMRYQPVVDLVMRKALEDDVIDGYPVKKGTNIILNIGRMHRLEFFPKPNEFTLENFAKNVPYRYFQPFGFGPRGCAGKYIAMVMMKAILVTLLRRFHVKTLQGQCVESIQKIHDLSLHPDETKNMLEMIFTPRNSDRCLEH
Description: Apparent binding affinity for human placental Cytochrome P450 19A1

For experiment [2], the target named is T1, Aromatase. The source holds these as a separate data set.
Description: Inhibition of human placental Cytochrome P450 19A1 at 250 nM
For experiment [3], the target named is T1, Aromatase. This is another data set of the same source.
The target of experiment [4] is T1, Aromatase. Description: Inhibition of human placental Cytochrome P450 19A1 at 100 nM.

On to `C[C@]12CCC(=O)C=C1C[C@H](Cc1ccccc1)[C@@H]1[C@@H]2CC[C@]2(C)C(=O)CC[C@@H]12`, for which, on Aromatase [1], the affinity corresponds to a Ki of 0.0445 µM. Besides, 0.25 µM produced 68.9% inhibition on Aromatase [2]. The molecule further displayed an inhibition at 0.1 µM against Aromatase [3] of 46.7%.

`CC12CCC3C(C1CCC2=O)[C@H](Cc1ccccc1)CC1=CC(=O)CCC13C` (stereo not given in full) returned a Ki on Aromatase [1] of 0.0189 µM. On Aromatase [2], this molecule had an inhibition at 0.25 µM of 81.5%. The same molecule gave an inhibition at 0.1 µM against Aromatase [3] of 64.3%.

`C[C@]12CCC(=O)C=C1C[C@H](CCc1ccccc1)[C@@H]1[C@@H]2CC[C@]2(C)C(=O)CC[C@@H]12`: on Aromatase [1], the Ki was 0.0402 µM. For the same molecule, the inhibition at 0.25 µM against Aromatase [2] was 67.8%. Testing at 0.1 µM on Aromatase [3] gave an inhibition of 55.7%.

For the molecule `C[C@]12CCC(=O)C=C1C[C@@H](Sc1ccc(N)cc1)[C@@H]1[C@@H]2CC[C@]2(C)C(=O)CC[C@@H]12`, the inhibition at 0.25 µM against Aromatase [2] was determined as 83.9%. Besides, the inhibition at 0.1 µM on Aromatase [4] came to 70.6%.

On to `CC12CCC3C(C1CCC2=O)[C@H](CCc1ccccc1)CC1=CC(=O)CCC13C` (stereo not given in full), for which the Ki on Aromatase [1] came to 0.0131 µM. Testing at 0.25 µM on Aromatase [2] gave an inhibition of 81.6%. The molecule further yielded an inhibition at 0.1 µM on Aromatase [3] of 66.1%.

Molecule `C[C@]12CC[C@H]3[C@@H]([C@H](CCc4ccccc4)CC4=CC(=O)CC[C@@]43C)[C@@H]1CC[C@@H]2O` had an inhibition constant (Ki) at Aromatase [1] of 0.036 µM. In addition, the inhibition at 0.25 µM on Aromatase [2] stood at 56.7%. Also, the inhibition at 0.1 µM against Aromatase [3] was 45.8%.

`C[C@]12CC[C@H]3[C@@H]([C@H](Cc4ccccc4)CC4=CC(=O)CC[C@@]43C)[C@@H]1CC[C@@H]2O` had a Ki at Aromatase [1] of 0.0395 µM. On Aromatase [2], this molecule had an inhibition at 0.25 µM of 72.5%. The molecule also yielded an inhibition at 0.1 µM at Aromatase [3] of 59.4%.
